Values after ≈ are worked out from the molar mass of the structure shown. Like-named read-outs stand apart in the source and are kept apart here.
Experiments:
[1] = tested on: Vero cells; assay: Toxicity (half toxic concentration) in the anti-Cox_B3 test on Vero cells; assay type: cell-based
[2] = tested on: Cox_B3 virus; assay: Anti-Cox_B3 test: inhibition of cytopathic effect (CPE) in infected Vero cells, Reed-Muench; assay type: cell-based; settings: for IC50: read-out: IC50 (half-inhibitory concentration for viruses)
Text: The present examples verifies experimental results of anti-Cox_B3 of the compounds 1-137of the present invention, Pleconaril, 3-[3,5-dimethyl-4-[5-(3-methy-1,2-oxazolyl)propoxy]phenyl]-5-(trifluonomethyl) -1,2,4-oxadiazole is used as positive control.

[3] = Cox_B3 virus in Vero cells, CPE, Reed-Muench method

Molecule: Cc1cc(-c2noc(C(F)(F)F)n2)cc(C)c1OCCCOc1cnc(C#N)cn1 [Compound 131, 2-cyano-5-[3-[2,6-dimethyl-4-[5-(trifluoromethyl)-1,2,4-oxadiazole-3-yl]phenoxyl]propoxy]pyrazine]
- TC50 (half of the toxic concentration) ([1]; Vero cells, Cox_B3): 36.87 µg/mL
- IC50 ([2]; Vero): 0.035 µg/mL (≈ 0.0835 µM)

Molecule: Cc1cc(OCCCOc2c(C)cc(-c3noc(C(F)(F)F)n3)cc2C)ns1 [Compound 11, 3-[3,5-dimethyl-4-[3-(5-methylisothiazole-3-oxy)propoxy]phenyl]-5-(trifluoromethyl)-1,2,4-oxadiazole]
- TC50 (half of the toxic concentration) ([1]; Vero cells, Cox_B3): 45.87 µg/mL
- IC50 [2, 3]: 0.058 µg/mL (≈ 0.14 µM)

Molecule: 6-[2,6-dimethyl-4-[(5-(trifluoromethyl)-1,2,4-oxadiazole-3-yl)phenoxyl]ethoxyl]-5-fluoro-2-hydroxy-3-cyanopyridine [Compound 102]
- TC50 (half of the toxic concentration) [1]: 36.28 µg/mL
- IC50 (half-inhibitory concentration for viruses) [2, 3]: 0.10 µg/mL

Molecule: Cc1cc(-c2noc(C(F)(F)F)n2)cc(C)c1OCCCOc1ncc(C#N)cn1 [Compound 132, 2-[3-[2,6-dimethyl-4-[5-(trifluoromethyl)-1,2,4-oxadiazole-3-yl]phenoxyl]propoxy]-5-cyano-pyrimidine]
- TC50 (half of the toxic concentration) ([1]; Vero cells, Cox_B3): 39.23 µg/mL
- IC50 [2, 3]: 0.04 µg/mL (≈ 0.0954 µM)

Molecule: 6-[2,6-dimethyl-4-[(5-(trifluoromethyl)-1,2,4-oxadiazole-3-yl)phenoxyl]ethoxyl]-5-methylpyridine [Compound 51]
- TC50 (half of the toxic concentration) [1]: 40.58 µg/mL
- IC50 (half-inhibitory concentration for viruses) [2, 3]: 0.078 µg/mL

Molecule: Cc1ccc(OCCOc2c(C)cc(-c3noc(C(F)(F)F)n3)cc2C)c(F)c1 [Compound 39, 3-[3,5-dimethyl-4-[(2-fluoro-4-methylphenoxyl)ethoxyl]phenyl]-5-(trifluoromethyl)-1,2,4-oxadiazole]
- TC50 (half of the toxic concentration) ([1]; Vero cells, Cox_B3): 44.28 µg/mL
- IC50 [2, 3]: 0.056 µg/mL (≈ 0.136 µM)

Molecule: Cc1cc(-c2noc(C(F)(F)F)n2)cc(C)c1OCCOc1ccc(-c2noc(C(F)(F)F)n2)cn1 [Compound 114, 2-[2-[2,6-dimethyl-4-[5-(trifluoromethyl)-1,2,4-oxadiazole-3-yl]phenoxyl]ethoxyl]-5-[5-(trifluoromethyl)-1,2,4-oxadiazole-3-yl]-pyridine]
- TC50 (half of the toxic concentration) ([1]; Vero cells, Cox_B3): 36.32 µg/mL
- IC50 [2, 3]: 0.038 µg/mL (≈ 0.0737 µM)

Molecule: Cc1cc(-c2noc(C(F)(F)F)n2)cc(C)c1OCCOC(C)(C)C [Compound 36, 3-[3,5-dimethyl-4-[(2-tert-butoxy)ethoxyl]phenyl]-5-(trifluoromethyl)-1,2,4-oxadiazole]
- TC50 (half of the toxic concentration) ([1]; Vero cells, Cox_B3): 40.12 µg/mL
- IC50 [2, 3]: 0.13 µg/mL (≈ 0.363 µM)

Molecule: 6-[2,6-dimethyl-4-[(5-(trifluoromethyl)-1,2,4-oxadiazole-3-yl)phenoxyl]ethoxyl]-5-fluoro-2-hydroxyl-3-cyanopyridine [Compound 48]
- TC50 (half of the toxic concentration) [1]: 42.12 µg/mL
- IC50 (half-inhibitory concentration for viruses) [2, 3]: 0.15 µg/mL

Molecule: Cc1cc(OCCOc2c(C)cc(-c3noc(C(F)(F)F)n3)cc2C)[nH]n1 [Compound 15, 3-[3,5-dimethyl-4-[2-(3-methyl-1H-pyrazole-5-oxy)ethoxyl]phenyl]-5-(trifluoromethyl)-1,2,4-oxadiazole]
- TC50 (half of the toxic concentration) ([1]; Vero cells, Cox_B3): 42.38 µg/mL
- IC50 [2, 3]: 0.12 µg/mL (≈ 0.314 µM)

Molecule: 4-[2,6-dimethyl-4-(5-(trifluoromethyl)-1,2,4-oxadiazole-3-yl) phenoxyl]ethoxyl]-2-hydroxy-5-fluoropyrimidine [Compound 107]
- TC50 (half of the toxic concentration) [1]: 33.82 µg/mL
- IC50 (half-inhibitory concentration for viruses) [2, 3]: 0.085 µg/mL

Molecule: 3-[3,5-dimethyl-4-[2-(4-methylthiazole-2-thio)ethoxyl]phenyl]-5-(trifluoromethyl)-1,2,4-oxadiazole [Compound 68]
- TC50 (half of the toxic concentration) [1]: 43.87 µg/mL
- IC50 (half-inhibitory concentration for viruses) [2, 3]: 0.38 µg/mL

Molecule: Cc1nc(-c2cnc(OCCOc3c(C)cc(-c4noc(C(F)(F)F)n4)cc3C)c(F)c2)no1 [Compound 115, 2-[2-[2,6-dimethyl-4-[5-(trifluoromethyl)-1,2,4-oxadiazole-3-yl]phenoxyl]ethoxyl]-3-fluoro-5-(5-methyl-1,2,4-oxadiazole-3-yl)-pyridine]
- TC50 (half of the toxic concentration) ([1]; Vero cells, Cox_B3): 37.55 µg/mL
- IC50 [2, 3]: 0.037 µg/mL (≈ 0.0772 µM)
